Assay results published in patent US20230364119A1, “AUTOPHAGY ACTIVATOR” (Resonac Corporation, priority 2020, published 2023).

Assays:
[1] = system: Beclin 1 gene; test: Beclin 1 gene expression promoting effect in human senescent fibroblasts (quantitative real-time PCR); assay type: cell-based
Description: Senescent fibroblasts were prepared by the following procedure.
(§1) Normal human fibroblasts (NB1RGB, RIKEN BRC Cell Bank) were cultured until confluent in D-MEM medium (manufactured by Sigma-Aldrich) to which 10% fetal bovine serum (manufactured by MP Biomedicals) was added. Thereafter, the cells were treated with 250 μM aqueous hydrogen peroxide for 2 hours, and cultured for 24 hours in D-MEM medium to which fresh 10% fetal bovine serum was added. The treatment with aqueous hydrogen peroxide and the cell culture operation were repeated three times, and the obtained fibroblasts were used as senescent fibroblasts.
(§2) The prepared senescent fibroblasts were prepared at a seeding density of 10000 cells/cm^2 and cultured for 24 hours in D-MEM medium (manufactured by Sigma-Aldrich) to which 10% fetal bovine serum (manufactured by MP Biomedicals) was added. […]
(§3) Then, using Nucleospin (registered trademark) RNA kit (manufactured by Takara Bio Inc.), RNA was extracted from senescent fibroblasts or normal human fibroblasts in each example, and cDNA was synthesized from the obtained RNA. Next, using this cDNA as a template, by quantitative real-time PCR, the expression level of each gene was quantified using primers (manufactured by Takara Bio Inc.) specific to the LC3 gene, ATG5 gene, and Beclin 1 gene, respectively. […]

[2] = system: mTOR gene; test: mTOR gene expression suppression effect in human senescent fibroblasts (quantitative real-time PCR); assay type: cell-based
Description: as §1
as §2, with “added. Next, in Example 8, the inositol derivative A dissolved in purified water was added to the medium such that the final concentration of the inositol derivative A was 10-4% (V/V).” for “added.”
as §3, with “of mTOR” for “of each”, “to mTOR gene.” for “to the LC3 gene, ATG5 gene, and Beclin 1 gene, respectively.”

Which results are given for `O[C@H]1[C@H](O)[C@@H](O)[C@H](O)[C@@H](O)[C@H]1O` [Comparative Example 2, myo-inositol]?
Relative gene expression level Beclin 1 ([1]; 24 hours, 10^−3% (V/V) inositol or inositol derivative A, with the vitamin derivative of the example where added, GAPDH-standardized, Comparative Example 1 (purified water) = 1.00): 1.30; expression level of the Beclin 1 gene, in words ([1]; compared to Comparative Example 1 (purified water only)): more increased; Relative gene expression level mTOR ([2]; 24 hours, 10^−3% (V/V) inositol or inositol derivative A, with the vitamin derivative of the example where added, GAPDH-standardized, Comparative Example 3 (purified water) = 1.00): 0.95; expression level of the mTOR gene, in words ([2]; compared to Comparative Example 3 (purified water only)): almost the same
